Data taken from BindingDB's records for doi:10.1016/j.ejmech.2019.111646 (Hangzhou Xixi Hospital, 2019).

Assays:
[1] = Inhibition of 20S proteasome beta 2c (unknown origin) after 1 hr by fluorescence based assay
[2] = Inhibition of 20S proteasome beta 1c (unknown origin) after 1 hr by fluorescence based assay

- IC50 [1]: 28 nM
- IC50 [2]: 430 nM
SMILES: COc1ccc([C@@H](O)[C@H](NC(=O)[C@H](C)NC(=O)CN2CCOCC2)C(=O)N[C@@H](CC2=CCCC2)C(=O)[C@@]2(C)CO2)cc1 [Kzr-616]
